These results are taken from patent EP0558245A1, “Heterobicyclic compounds as antagogists of alpha-1 adrenergic and SHT1A receptors” (priority 1992, dated 1993).

Where a name gives a salt, the structure may show the parent alone. Read-outs that look alike come from different tables or passages of the source. Where only a bound is given, the exact number is not on record here.

Data set [1] has as its target α₁ receptors. In words: [3H]prazosin binding (α1 receptors), rat cerebral cortex membranes. Conditions: rat cerebral cortex crude membranes, [3H]prazosin 0.35 nM, 25°C 30 min; read-out: Receptor Binding IC50 (nM) α1.
Data set [2] addresses T1, 5HT1A receptors (Rattus norvegicus, UniProt P19327).
T1 construct: Rat hippocampi were homogenized; from tissue; host or cells: rat hippocampus membranes
T1 sequence (P19327 1-422): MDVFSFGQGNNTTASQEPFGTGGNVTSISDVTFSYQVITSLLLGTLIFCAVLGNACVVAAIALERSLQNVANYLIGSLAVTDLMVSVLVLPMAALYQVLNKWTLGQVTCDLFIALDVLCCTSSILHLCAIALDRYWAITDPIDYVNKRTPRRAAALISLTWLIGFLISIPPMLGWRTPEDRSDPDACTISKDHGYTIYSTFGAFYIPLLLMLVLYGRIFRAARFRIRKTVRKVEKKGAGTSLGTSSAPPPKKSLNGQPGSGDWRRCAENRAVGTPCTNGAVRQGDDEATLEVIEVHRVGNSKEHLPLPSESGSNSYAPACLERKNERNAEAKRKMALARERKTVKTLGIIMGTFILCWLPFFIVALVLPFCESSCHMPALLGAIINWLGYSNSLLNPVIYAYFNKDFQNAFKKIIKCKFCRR
Nature of the data set: [3H]8-OH-DPAT binding (5HT1A receptors), rat hippocampus membranes. To be noted: rat hippocampus crude membranes, [3H]8-OH-DPAT 1.0 nM, 25°C 30 min; read-out: Receptor Binding IC50 (nM) 5-HT1a.

Data set [3] is described as follows: Acute toxicity in mice after intraperitoneal and oral administration. To be noted: mouse, in vivo, female albino Swiss mice, mortality recorded 7 days after administration. In outline: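 Female albino Swiss mice (20-30 g) dosed i.p. or orally at four log-scaled doses in 0.5% Methocel (10 ml/kg), 4 mice/dose. Mortality recorded at 7 days; LD₅₀ with fiducial limits by Weil's method.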

For data set [4], the system named is rat bladder strips. Nature of the data set: K+-induced contractions of rat bladder strips. Type of data set: cell-based. The method, then:
The whole bladder of the rat was removed and immediately placed in Krebs solution warmed at 37°C. […] Each strip was placed in a 10 ml organ bath and connected, under a constant load of 1 g, to an isometric strain gauge (DY-1 Basile, Comerio, Varese, Italy). […] After a 60 minutes equilibration period the strips were exposed to 80 mM KCl (final concentration). […] When the tonic contraction was stable, the strips were washed and 30 minutes later a new contraction was induced. After having recorded two or more reproducible responses, one concentration of the tested drugs was added to the bath and 30 minutes later a new contraction was induced. The experimental groups consisted of at least two preparations taken from different animals for each concentration of drug tested. The IC₅₀ values of inhibition of agonist-induced contractions were evaluated by linear regression analysis.

The mark [5] stands for this setting: ip, intraperitoneal, read-out: Acute Toxicity in Mice LD50 (mg/kg) i.p.
The mark [6] stands for this setting: oral, read-out: Acute Toxicity in Mice LD50 (mg/kg) p.o.
[7] abbreviates: 80 mM KCl, phasic contraction, drug added 30 minutes before, read-out: K+ Stimulation of Rat Bladder IC50 (μM) Contractions Phasic.
The mark [8] stands for this setting: 80 mM KCl, tonic contraction, drug added 30 minutes before, read-out: K+ Stimulation of Rat Bladder IC50 (μM) Contractions Tonic.

Regarding `COc1cccc(OC)c1OCCNCCOc1cccc2c(=O)c(C)c(-c3ccccc3)oc12.Cl` [Example 44, 8-{2-[2-(2,6-dimethoxyphenoxy)-ethylamino]-ethoxy}-3-methyl-4-oxo-2-phenyl-4H-1-benzopyran hydrochloride], the 50% inhibitory concentration (IC50) in data set [1] was determined as 685 nM; in data set [2], 201 nM; in data set [4] (setting [7]), 0.6 µM; in data set [4] (setting [8]), 0.5 µM. The results for the LD50 at 168 h in data set [3] (setting [5]) and in data set [3] (setting [6]) were 84 mg/kg and 399 mg/kg, respectively.
On to `COc1ccccc1N1CCN(CCNc2cccc3c(=O)c(C)c(-c4ccccc4)oc23)CC1.Cl.Cl` [Example 32, 8-{2-[4-(2-methoxyphenyl)-1-piperazinyl]-ethylamino}-3-methyl-4-oxo-2-phenyl-4H-1-benzopyran dihydrochloride], for which the IC50 was 119 nM in data set [1], 46 nM in data set [2], 10 µM in data set [4] (setting [7]) and > 10 µM in data set [4] (setting [8]). Also, the LD50 at 168 h in data set [3] (setting [5]) is 301 mg/kg; in data set [3] (setting [6]), > 2000 mg/kg.
Turning to `COc1ccccc1N1CCN(CCCCNc2cccc3c(=O)c(C)c(-c4ccccc4)oc23)CC1` [Example 34, 8-{4-[4-(2-methoxyphenyl)-1-piperazinyl]-butylamino}-3-methyl-4-oxo-2-phenyl-4H-1-benzopyran hydrochloride hemihydrate], the IC50 in data set [1] was 30 nM; in data set [2], 34 nM; in data set [4] (setting [7]), 2.8 µM; in data set [4] (setting [8]) it was 3.6 µM. Further, the LD50 at 168 h in data set [3] (setting [5]) is > 500 mg/kg.
On to `COc1ccccc1N1CCN(CCCCOc2cccc3c(=O)c(C)c(-c4ccccc4)oc23)CC1.Cl.Cl` [dihydrochloride], for which the IC50 in data set [1] was found to be 43 nM; in data set [2] it was 53 nM; in data set [4] (read-out: K+ Stimulation of Rat Bladder IC50 (μM) Contractions Phasic) it was 0.7 µM; in data set [4] (read-out: K+ Stimulation of Rat Bladder IC50 (μM) Contractions Tonic), 1.4 µM.
`Cc1c(-c2ccccc2)oc2c(C(=O)NCCCN3CCC(C(=O)c4ccc(F)cc4)CC3)cccc2c1=O` [Example 56, 8-{3-[4-(4-fluorobenzoyl)-1-piperidinyl]-propyl-carbamoyl}-3-methyl-4-oxo-2-phenyl-4H-1-benzopyran]: the IC50 in data set [1] was 25 nM; in data set [2] it was 748 nM. In addition, the LD50 at 168 h in data set [3] (setting [5]) is > 500 mg/kg.
Take `COc1ccccc1N1CCN(CCCN(C)c2cccc3c(=O)c(C)c(-c4ccccc4)oc23)CC1` [Example 35, 8-{N-methyl-3-[4-(2-methoxyphenyl)-1-piperazinyl]-propylamino}-3-methyl-4-oxo-2-phenyl-4H-1-benzopyran hydrochloride hemihydrate]: the values for the concentration for half-maximal inhibition (IC50) in data set [1] and in data set [2] were 15 nM and 8 nM, respectively. Moreover, the LD50 at 168 h turned out to be 329 mg/kg in data set [3] (setting [5]) and 959 mg/kg in data set [3] (setting [6]).
On the same counts, the results for `Cc1c(-c2ccccc2)oc2c(C(=O)OCCCN3CCN(c4ccccc4)CC3)cccc2c1=O.Cl.Cl` [Example 8, 8-[3-(4-phenyl-1-piperazinyl)-propoxycarbonyl]-3-methyl-4-oxo-2-phenyl-4H-1-benzopyran dihydrochloride] are 66 nM, 111 nM, > 500 mg/kg and 1920 mg/kg.
With `COc1ccccc1N1CCN(CCOC(=O)/C=C/c2cccc3c(=O)c(C)c(-c4ccccc4)oc23)CC1` [Example 79, (E)-8-<2-{2-[4-(2-methoxyphenyl)-1-piperazinyl]-ethoxycarbonyl}-ethenyl>-3-methyl-4-oxo-2-phenyl-4H-1-benzopyran methanesulphonate], the results for the IC50 in data set [1] and in data set [2] were 77 nM and 141 nM, respectively. Moreover, the LD50 at 168 h in data set [3] (setting [5]) was > 500 mg/kg; in data set [3] (setting [6]) it was > 2000 mg/kg.
For `COc1ccccc1N1CCN(CCN(C)S(=O)(=O)c2cccc3c(=O)c(C)c(-c4ccccc4)oc23)CC1.Cl` [Example 49, 8-{N-methyl-2-[4-(2-methoxyphenyl)-1-piperazinyl]-ethylsulphamoyl}-3-methyl-4-oxo-2-phenyl-4H-1-benzopyran hydrochloride] the same measures were 152 nM, 9 nM, 432 mg/kg and > 2000 mg/kg.
As to `COc1ccccc1N1CCN(CCCN(C(C)=O)c2cccc3c(=O)c(C)c(-c4ccccc4)oc23)CC1.Cl.O` [Example 36, 8-{N-acetyl-3-[4-(2-methoxyphenyl)-1-piperazinyl]-propylamino}-3-methyl-4-oxo-2-phenyl-4H-1-benzopyran hydrochloride hydrate], the IC50 stood at 18 nM in data set [1] and 54 nM in data set [2]. The LD50 at 168 h in data set [3] (setting [5]) is > 500 mg/kg; in data set [3] (setting [6]), > 2000 mg/kg.
For the compound `COc1ccccc1N1CCN(CCCN(C(N)=O)c2cccc3c(=O)c(C)c(-c4ccccc4)oc23)CC1` [Example 50, 8-{N-carbamoyl-3-[4-(2-methoxyphenyl)-1-piperazinyl]-propylamino}-3-methyl-4-oxo-2-phenyl-4H-1-benzopyran methanesulphonate hemihydrate], the IC50 turned out to be 39 nM in data set [1] and 300 nM in data set [2]. Further, the LD50 at 168 h in data set [3] (setting [5]) worked out at 211 mg/kg; in data set [3] (setting [6]), 299 mg/kg.
`COc1ccccc1N1CCN(CCCNC(=O)c2cccc3c2OCCC3=O)CC1.CS(=O)(=O)O` [Example 87, 8-{3-[4-(2-methoxyphenyl)-1-piperazinyl]-propylcarbamoyl}-2,3-dihydro-4-oxo-4H-1-benzopyran methanesulphonate]: the IC50 turned out to be 119 nM in data set [1] and 107 nM in data set [2]. In addition, the LD50 at 168 h in data set [3] (setting [5]) was 237 mg/kg; in data set [3] (setting [6]) it was > 500 mg/kg.
On to `CCOC(CN1CCN(c2ccccc2OC)CC1)c1cccc2c(=O)c(C)c(-c3ccccc3)oc12.Cl` (stereo not shown) [Example 22, 8-{1-ethoxy-2-[4-(2-methoxyphenyl)-1-piperazinyl]-ethyl}-3-methyl-4-oxo-2-phenyl-4H-1-benzopyran hydrochloride], for which the IC50 in data set [1] was found to be 117 nM; in data set [2], 48 nM. For the same compound, the LD50 at 168 h in data set [3] (setting [5]) was > 500 mg/kg; in data set [3] (setting [6]), > 2000 mg/kg.
`Cc1c(-c2ccccc2)oc2c(C(=O)OCCCN3CCN(c4ccccc4Cl)CC3)cccc2c1=O.Cl.Cl` [Example 7, 8-{3-[4-(2-chlorophenyl)-1-piperazinyl]-propoxycarbonyl}-3-methyl-4-oxo-2-phenyl-4H-1-benzopyran dihydrochloride]: the IC50 stood at 86 nM in data set [1] and 155 nM in data set [2]. For the same compound, the LD50 at 168 h in data set [3] (setting [5]) came to 384 mg/kg; in data set [3] (setting [6]) it was 1920 mg/kg.
As to `COc1ccccc1N1CCN(CCCCc2cccc3c(=O)c(C)c(-c4ccccc4)oc23)CC1.CS(=O)(=O)O` [Example 53, 8-{4-[4-(2-methoxyphenyl)-1-piperazinyl]-butyl}-3-methyl-4-oxo-2-phenyl-4H-1-benzopyran methanesulphonate], the IC50 in data set [1] came to 7 nM; in data set [2], 41 nM. Further, the LD50 at 168 h in data set [3] (setting [5]) was 127 mg/kg; in data set [3] (setting [6]), 1020 mg/kg.
With `Cc1c(-c2ccccc2)oc2c(C(=O)NCCCN3CCN(c4ccccc4)CC3)cccc2c1=O` [Example 15, 8-[3-(4-phenyl-1-piperazinyl)-propylcarbamoyl]-3-methyl-4-oxo-2-phenyl-4H-1-benzopyran monohydrochloride hemihydrate], the IC50 is 8 nM in data set [1] and 131 nM in data set [2]. Also, the LD50 at 168 h in data set [3] (setting [5]) turned out to be 306 mg/kg; in data set [3] (setting [6]) it was 496 mg/kg.
With `Cc1c(-c2ccccc2)oc2c(C(=O)NCCCN3CCN(c4ccccc4O)CC3)cccc2c1=O` [Example 59, 8-{3-[4-(2-hydroxyphenyl)-1-piperazinyl]-propylcarbamoyl}-3-methyl-4-oxo-2-phenyl-4H-1-benzopyran], the IC50 stood at 5 nM in data set [1] and 9 nM in data set [2]. For the same compound, the LD50 at 168 h was > 500 mg/kg in data set [3] (setting [5]) and 278 mg/kg in data set [3] (setting [6]).
For the compound `COc1ccccc1OCCNCCCNC(=O)c1cccc2c(=O)c(C)c(-c3ccccc3)oc12.Cl` [Example 14, 8-{3-[2-(2-methoxyphenoxy)-ethylamino]-propylcarbamoyl}-3-methyl-4-oxo-2-phenyl-4H-1-benzopyran hydrochloride], the IC50 was 61 nM in data set [1] and 6 nM in data set [2]. In addition, the values for the LD50 at 168 h in data set [3] (setting [5]) and in data set [3] (setting [6]) were 140 mg/kg and 559 mg/kg, respectively.

As a reminder, the IC50 is the concentration that gives 50% inhibition.
